From ChEMBL document CHEMBL1201862, “PubChem BioAssay data set” (2004)
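Method: 48-hour compound exposure of cells in 96-well plates, five concentrations, linear interpolation of endpoints. GI50 is the concentration that inhibits growth by half.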 Active and inactive are the calls of the source. No stated cut-off is given here; in the data, active = GI50 up to about 1.1 µM and inactive = higher.

Key:
Assay in all cases: NCI anticancer screen, dose series, 48 h
IGROV-1 = system: IGROV-1
MDA-N = system: MDA-N
OVCAR-4 = system: OVCAR-4
HCC 2998 = system: HCC 2998
SN12C = system: SN12C
EKVX = system: EKVX
SK-MEL-28 = system: SK-MEL-28
MDA-MB-435 = system: MDA-MB-435
UACC-257 = system: UACC-257
SF-295 = system: SF-295
RXF 393 = system: RXF 393
MCF7 = system: MCF7
UACC-62 = system: UACC-62
T47D = system: T47D
ACHN = system: ACHN
A549 = system: A549
PC-3 = system: PC-3
NCI-H460 = system: NCI-H460
UO-31 = system: UO-31
NCI-H522 = system: NCI-H522
HCT-116 = system: HCT-116
Malme-3M = system: Malme-3M
HOP-92 = system: HOP-92
DU-145 = system: DU-145
NCI-H226 = system: NCI-H226
SK-MEL-5 = system: SK-MEL-5
Hs-578T = system: Hs-578T
MOLT-4 = system: MOLT-4
HCT-15 = system: HCT-15
SF-539 = system: SF-539
OVCAR-3 = system: OVCAR-3
HOP-62 = system: HOP-62
BT-549 = system: BT-549
KM12 = system: KM12
HT-29 = system: HT-29
SNB-75 = system: SNB-75
K562 = system: K562
COLO 205 = system: COLO 205
M14 = system: M14
786-0 = system: 786-0
CAKI-1 = system: CAKI-1
NCI-H23 = system: NCI-H23
SF-268 = system: SF-268
SNB-19 = system: SNB-19
TK-10 = system: TK-10
U-251 = system: U-251
HL-60 = system: HL-60
OVCAR-8 = system: OVCAR-8
LOX IMVI = system: LOX IMVI
NCI/ADR-RES = system: NCI/ADR-RES
SW-620 = system: SW-620
RPMI-8226 = system: RPMI-8226
OVCAR-5 = system: OVCAR-5
CCRF-CEM = system: CCRF-CEM
SK-MEL-2 = system: SK-MEL-2
SK-OV-3 = system: SK-OV-3
SR = system: SR
MDA-MB-231 = system: MDA-MB-231
A498 = system: A498

Measured: GI50

Cc1ccc([N+](=O)[O-])c2c(NCC(O)CO)ccnc12 (stereo not drawn)
inactive: IGROV-1 43.2 µM | MDA-N 42.3 µM | OVCAR-4 52.8 µM | HCC 2998 31.8 µM | SN12C 75.3 µM | EKVX 19.8 µM | SK-MEL-28 > 100 µM | MDA-MB-435 71.6 µM | UACC-257 36.4 µM | SF-295 42.1 µM | RXF 393 45.9 µM | MCF7 32.1 µM | UACC-62 30.3 µM | T47D 49.7 µM | ACHN 57.5 µM | A549 25.4 µM | PC-3 70.3 µM | NCI-H460 20 µM | UO-31 74.3 µM | NCI-H522 > 10 µM | HCT-116 44.4 µM | Malme-3M 16.4 µM | HOP-92 34.8 µM | DU-145 51.4 µM | NCI-H226 73.1 µM | SK-MEL-5 18.6 µM | Hs-578T 7.71 µM | MOLT-4 > 100 µM | SF-539 19.3 µM | OVCAR-3 36.1 µM | HOP-62 73.8 µM | BT-549 47 µM | KM12 32.2 µM | HT-29 30.7 µM | SNB-75 > 100 µM | K562 50 µM | COLO 205 25.5 µM | M14 51.9 µM | 786-0 30.5 µM | CAKI-1 54 µM | NCI-H23 41.8 µM | SF-268 60.4 µM | SNB-19 90.8 µM | TK-10 48.2 µM | U-251 93.8 µM | HL-60 32.7 µM | OVCAR-8 47 µM | LOX IMVI 37.6 µM | NCI/ADR-RES > 100 µM | SW-620 49.2 µM | RPMI-8226 84.9 µM | OVCAR-5 > 100 µM | CCRF-CEM 83.9 µM | SK-MEL-2 14.3 µM | SK-OV-3 > 100 µM | SR 95.1 µM
28.8 µM: HCT-15

COc1ccc([C@]23CCC4(OCC(C)(C)CO4)[C@H]4CON(O[C@H](O[C@@H]5CCCCC5C(C)(C)c5ccccc5)C2)[C@@H]43)cc1OC (stereo partly drawn)
inactive: IGROV-1 32.7 µM | MDA-N 28.8 µM | OVCAR-4 26.1 µM | HCC 2998 > 100 µM | SN12C 61.1 µM | EKVX 34 µM | SK-MEL-28 42.6 µM | MDA-MB-435 25.9 µM | UACC-257 36.6 µM | SF-295 39 µM | RXF 393 25.4 µM | MCF7 30.1 µM | UACC-62 30.4 µM | T47D 20.2 µM | A549 42.3 µM | PC-3 39.6 µM | NCI-H460 79.4 µM | UO-31 35.8 µM | NCI-H522 27 µM | MDA-MB-231 81.7 µM | HCT-116 33.3 µM | Malme-3M 56.6 µM | HOP-92 25.8 µM | DU-145 59.3 µM | NCI-H226 58.6 µM | SK-MEL-5 22.2 µM | MOLT-4 17.7 µM | SF-539 5.81 µM | OVCAR-3 34 µM | HOP-62 97.3 µM | BT-549 69 µM | A498 48.1 µM | KM12 29.6 µM | HT-29 44 µM | SNB-75 41.5 µM | K562 21.5 µM | COLO 205 34.7 µM | M14 35.6 µM | 786-0 50.5 µM | CAKI-1 13.6 µM | NCI-H23 47.6 µM | SNB-19 61.7 µM | TK-10 78.5 µM | U-251 64 µM | HL-60 20.6 µM | OVCAR-8 60 µM | LOX IMVI 57.5 µM | NCI/ADR-RES 31 µM | SW-620 36.4 µM | RPMI-8226 26.9 µM | OVCAR-5 89.1 µM | CCRF-CEM 29.5 µM | SK-MEL-2 47.1 µM | SK-OV-3 78.3 µM | SR 20 µM
37.8 µM: HCT-15
